Test results taken from ChEMBL document CHEMBL1140736, “High-throughput log P determination by ultraperformance liquid chromatography: a convenient tool for medicinal chemists” (J Med Chem, 2008).

Key:
[1] = Partition coefficient, log P by UPLC method; type: physicochemical; details: octanol/water
[2] = Partition coefficient, log P of the compound; type: physicochemical; details: octanol/water

Compound | logP [1] | logP [2]
C=CCc1ccccc1OCC(O)CNC(C)C (stereo not drawn) [ALPRENOLOL] | 3.4 | –
CC(C)NCC(O)COc1ccc(COCCOC(C)C)cc1 (stereo not drawn) [BISOPROLOL] | 2.6 | 2.15
CCCCN1CCCCC1C(=O)Nc1c(C)cccc1C (stereo not drawn) [BUPIVACAINE] | 3.8 | 3.72
CCCCN(CCCC)CCCOC(=O)c1ccc(N)cc1 [BUTACAINE] | 4.7 | 4.26
CC(C)NCC(O)COc1cccc2[nH]c3ccccc3c12 (stereo not drawn) [CARAZOLOL] | 3.4 | 3.73
CCCCOc1cc(C(=O)NCCN(CC)CC)c2ccccc2n1 [DIBUCAINE] | – | 4.19
Cc1cccc(C)c1NC(=O)C1CCCCN1C (stereo not drawn) [MEPIVACAINE] | 2.2 | –
CC(=O)Oc1c(C)cc(OCC(O)CNC(C)C)c(C)c1C (stereo not drawn) [METIPRANOLOL] | 3 | 2.81
COCCc1ccc(OCC(O)CNC(C)C)cc1 (stereo not drawn) [METOPROLOL] | 2.2 | –
C=CCOc1ccccc1OCC(O)CNC(C)C (stereo not drawn) [OXPRENOLOL] | 2.6 | 2.51
CC(C)NCC(O)COc1cccc2[nH]ccc12 (stereo not drawn) [PINDOLOL] | 1.9 | 1.83
CCCNC(C)C(=O)Nc1ccccc1C (stereo not drawn) [PRILOCAINE] | 2.3 | 2.12
CCN(CC)CCOC(=O)c1ccc(N)cc1 [PROCAINE] | 2.1 | 2.03
CCCCNc1ccc(C(=O)OCCN(C)C)cc1 [TETRACAINE] | – | 3.39
